Measurements reported in PubChem BioAssay (NCI).
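Compound exposure: 48 hours, 5 concentrations, 96-well plates. GI50 marks 50% less growth. The concentration for full growth arrest is given as TGI.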

Experiments:
Assay in all cases: growth of human tumour cells (NCI), 48 h
[1] = tested on: SK-MEL-5 melanoma
[2] = tested on: BT-549 breast
[3] = tested on: UO-31 renal
[4] = tested on: NCI-H522 lung
[5] = tested on: TK-10 renal
[6] = tested on: MOLT-4 leukemia
[7] = tested on: T-47D breast
[8] = tested on: A498 renal
[9] = tested on: SNB-19 CNS
[10] = tested on: SF-539 CNS
[11] = tested on: NCI-H460 lung
[12] = tested on: SF-295 CNS
[13] = tested on: CCRF-CEM leukemia
[14] = tested on: MDA-MB-435
[15] = tested on: SK-MEL-2 melanoma
[16] = tested on: OVCAR-4 ovarian
[17] = tested on: CAKI-1 renal
[18] = tested on: ACHN renal
[19] = tested on: RPMI-8226 leukemia
[20] = tested on: SNB-75 CNS
[21] = tested on: MDA-MB-468 breast
[22] = tested on: SK-MEL-28 melanoma
[23] = tested on: SF-268 CNS
[24] = tested on: HCT-116 colon
[25] = tested on: SW-620 colon
[26] = tested on: PC-3 prostate
[27] = tested on: KM12 colon
[28] = tested on: HL-60(TB) leukemia
[29] = tested on: MCF7 breast
[30] = tested on: HOP-62 NSCLC
[31] = tested on: OVCAR-5 ovarian
[32] = tested on: OVCAR-3 ovarian
[33] = tested on: RXF 393 renal
[34] = tested on: K-562 leukemia
[35] = tested on: HCT-15 colon
[36] = tested on: UACC-62 melanoma
[37] = tested on: M14 melanoma
[38] = tested on: NCI-H226 lung
[39] = tested on: EKVX NSCLC
[40] = tested on: SN12C renal
[41] = tested on: MALME-3M melanoma
[42] = tested on: DU-145 prostate
[43] = tested on: HOP-92 NSCLC
[44] = tested on: IGROV1 ovarian
[45] = tested on: HCC-2998 colon
[46] = tested on: MDA-MB-231 breast
[47] = tested on: NCI/ADR-RES ovarian
[48] = tested on: A549 NSCLC
[49] = tested on: LOX IMVI melanoma
[50] = tested on: UACC-257 melanoma
[51] = tested on: U251 CNS
[52] = tested on: HS 578T breast
[53] = tested on: NCI-H23 lung
[54] = tested on: SK-OV-3 ovarian
[55] = tested on: OVCAR-8 ovarian
[56] = tested on: 786-0 renal
[57] = tested on: COLO 205 colon

For `Cc1occc1C(=O)NN1C(=O)/C(=C/C=C/c2ccc([N+](=O)[O-])o2)SC1=S`, the GI50 [1] was 1.64 µM, the TGI [1] was 3.13 µM and the GI50 [2] was 1.77 µM. The TGI [2] was 3.29 µM, the GI50 [3] was 1.51 µM and the TGI [3] was 2.96 µM. It also gave a GI50 [4] of 1.65 µM, a TGI [4] of 3.21 µM and a GI50 [5] of 3.47 µM. It also gave a TGI [5] of 9.99 µM, a GI50 [6] of 2.13 µM and a TGI [6] of 8.32 µM. The GI50 [7] was 2.17 µM, the TGI [7] was 5.57 µM and the GI50 [8] was 19.4 µM. For the same compound, the TGI [8] was 33.6 µM, the GI50 [9] was 5.47 µM and the TGI [9] was 18 µM. It also gave a GI50 [10] of 1.72 µM, a TGI [10] of 3.3 µM and a GI50 [11] of 1.79 µM. It also gave a TGI [11] of 3.66 µM, a GI50 [12] of 6.19 µM and a TGI [12] of 18.8 µM. For the same compound, the GI50 [13] was 1.41 µM, the TGI [13] was 8.47 µM and the GI50 [14] was 1.93 µM. For the same compound, the TGI [14] was 4.26 µM, the GI50 [15] was 1.73 µM and the TGI [15] was 3.56 µM. It also gave a GI50 [16] of 2.76 µM, a TGI [16] of 10.1 µM and a GI50 [17] of 1.82 µM. For the same compound, the TGI [17] was 4.01 µM, the GI50 [18] was 1.73 µM and the TGI [18] was 3.23 µM. The GI50 [19] was 1.67 µM, the TGI [19] was 7.51 µM and the GI50 [20] was 1.66 µM. The TGI [20] was 7.48 µM, the GI50 [21] was 1.62 µM and the TGI [21] was 3.27 µM. The GI50 [22] was 1.85 µM, the TGI [22] was 3.63 µM and the GI50 [23] was 2.49 µM. It also gave a TGI [23] of 6.95 µM, a GI50 [24] of 1.06 µM and a TGI [24] of 2.54 µM. It also gave a GI50 [25] of 1.11 µM, a TGI [25] of 2.65 µM and a GI50 [26] of 2.79 µM. It also gave a TGI [26] of 10.2 µM, a GI50 [27] of 2.22 µM and a TGI [27] of 6.21 µM. The GI50 [28] was 2.64 µM, the TGI [28] was 11.6 µM and the GI50 [29] was 1.5 µM. The TGI [29] was 5 µM, the GI50 [30] was 3.37 µM and the TGI [30] was 11.7 µM. It also gave a GI50 [31] of 1.86 µM, a TGI [31] of 3.68 µM and a GI50 [32] of 1.59 µM. It also gave a TGI [32] of 3.07 µM, a GI50 [33] of 1.71 µM and a TGI [33] of 3.2 µM. It also gave a GI50 [34] of 0.586 µM, a TGI [34] of 7.28 µM and a GI50 [35] of 0.645 µM. The TGI [35] was 2.24 µM, the GI50 [36] was 1.36 µM and the TGI [36] was 2.77 µM. It also gave a GI50 [37] of 1.51 µM, a TGI [37] of 2.93 µM and a GI50 [38] of 2.02 µM. It also gave a TGI [38] of 5.09 µM, a GI50 [39] of 1.83 µM and a TGI [39] of 4 µM. It also gave a GI50 [40] of 1.65 µM, a TGI [40] of 3.96 µM and a GI50 [41] of 1.5 µM. It also gave a TGI [41] of 3.23 µM, a GI50 [42] of 3.11 µM and a TGI [42] of 10.1 µM. The GI50 [43] was 2.56 µM, the TGI [43] was 5.59 µM and the GI50 [44] was 1.85 µM. The TGI [44] was 3.56 µM, the GI50 [45] was 1.89 µM and the TGI [45] was 3.69 µM. The GI50 [46] was 1.51 µM, the TGI [46] was 2.97 µM and the GI50 [47] was 2.55 µM. For the same compound, the TGI [47] was 7.46 µM, the GI50 [48] was 4.82 µM and the TGI [48] was 21.1 µM. The GI50 [49] was 1.26 µM, the TGI [49] was 2.55 µM and the GI50 [50] was 2.05 µM. The TGI [50] was 5.1 µM, the GI50 [51] was 1.89 µM and the TGI [51] was 4.62 µM. For the same compound, the GI50 [52] was 2.44 µM, the TGI [52] was 7.46 µM and the GI50 [53] was 1.78 µM. The TGI [53] was 3.6 µM, the GI50 [54] was 5.82 µM and the TGI [54] was 18.7 µM. The GI50 [55] was 2.5 µM, the TGI [55] was 10.9 µM and the GI50 [56] was 2.01 µM. The TGI [56] was 4.19 µM, the GI50 [57] was 1.62 µM and the TGI [57] was 3.23 µM.
